Experimental data from PubChem BioAssay (NCI).
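In this assay, cells in 96-well plates receive the compound at five concentrations for 48 hours. Endpoints are linearly interpolated between the surrounding concentrations. Here, GI50 denotes the concentration required for 50% inhibition of growth. At the TGI there is no net growth.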

Key:
Assay in all cases: DTP human tumour cell line panel, 48 h
[1] = system: A549 NSCLC
[2] = system: CCRF-CEM leukemia
[3] = system: NCI/ADR-RES ovarian
[4] = system: COLO 205 colon
[5] = system: NCI-H226 lung
[6] = system: SN12C renal
[7] = system: MDA-MB-435
[8] = system: U251 CNS
[9] = system: HOP-92 NSCLC
[10] = system: K-562 leukemia
[11] = system: 786-0 renal
[12] = system: MOLT-4 leukemia
[13] = system: NCI-H23 lung
[14] = system: NCI-H522 lung
[15] = system: SK-MEL-5 melanoma
[16] = system: RPMI-8226 leukemia
[17] = system: HCC-2998 colon
[18] = system: CAKI-1 renal
[19] = system: LOX IMVI melanoma
[20] = system: UACC-62 melanoma
[21] = system: NCI-H460 lung
[22] = system: MALME-3M melanoma
[23] = system: HT29 colon
[24] = system: HS 578T breast
[25] = system: A498 renal
[26] = system: OVCAR-3 ovarian
[27] = system: HCT-116 colon
[28] = system: IGROV1 ovarian
[29] = system: HOP-62 NSCLC
[30] = system: MCF7 breast
[31] = system: OVCAR-8 ovarian
[32] = system: SK-MEL-28 melanoma
[33] = system: EKVX NSCLC
[34] = system: RXF 393 renal
[35] = system: OVCAR-5 ovarian
[36] = system: TK-10 renal
[37] = system: SNB-75 CNS
[38] = system: T-47D breast
[39] = system: OVCAR-4 ovarian
[40] = system: SF-539 CNS
[41] = system: SNB-19 CNS
[42] = system: SK-OV-3 ovarian
[43] = system: SR leukemia
[44] = system: SF-295 CNS
[45] = system: UACC-257 melanoma
[46] = system: BT-549 breast
[47] = system: HCT-15 colon
[48] = system: ACHN renal
[49] = system: SW-620 colon
[50] = system: DU-145 prostate
[51] = system: HL-60(TB) leukemia
[52] = system: SF-268 CNS
[53] = system: PC-3 prostate
[54] = system: M14 melanoma
[55] = system: SK-MEL-2 melanoma
[56] = system: UO-31 renal
[57] = system: MDA-MB-231 breast
[58] = system: KM12 colon

O=c1[nH]c(Sc2sc3ccc(Cl)cc3c2CBr)nc(=S)[nH]1
GI50 [1]: > 100 µM | TGI [1]: > 100 µM | GI50 [2]: > 100 µM | TGI [2]: > 100 µM | GI50 [3]: > 100 µM | TGI [3]: > 100 µM | GI50 [4]: > 100 µM | TGI [4]: > 100 µM | GI50 [5]: > 100 µM | TGI [5]: > 100 µM | GI50 [6]: > 100 µM | TGI [6]: > 100 µM | GI50 [7]: > 100 µM | TGI [7]: > 100 µM | GI50 [8]: > 100 µM | TGI [8]: > 100 µM | GI50 [9]: > 100 µM | TGI [9]: > 100 µM | GI50 [10]: > 100 µM | TGI [10]: > 100 µM | GI50 [11]: > 100 µM | TGI [11]: > 100 µM | GI50 [12]: 99.1 µM | TGI [12]: > 100 µM | GI50 [13]: > 100 µM | TGI [13]: > 100 µM | GI50 [14]: > 63.8 µM | TGI [14]: > 100 µM | GI50 [15]: > 100 µM | TGI [15]: > 100 µM | GI50 [16]: > 100 µM | TGI [16]: > 100 µM | GI50 [17]: > 100 µM | TGI [17]: > 100 µM | GI50 [18]: > 100 µM | TGI [18]: > 100 µM | GI50 [19]: > 100 µM | TGI [19]: > 100 µM | GI50 [20]: > 100 µM | TGI [20]: > 100 µM | GI50 [21]: > 100 µM | TGI [21]: > 100 µM | GI50 [22]: > 100 µM | TGI [22]: > 100 µM | GI50 [23]: > 100 µM | TGI [23]: > 100 µM | GI50 [24]: > 100 µM | TGI [24]: > 100 µM | GI50 [25]: > 100 µM | TGI [25]: > 100 µM | GI50 [26]: > 100 µM | TGI [26]: > 100 µM | GI50 [27]: > 100 µM | TGI [27]: > 100 µM | GI50 [28]: > 100 µM | TGI [28]: > 100 µM | GI50 [29]: > 100 µM | TGI [29]: > 100 µM | GI50 [30]: > 100 µM | TGI [30]: > 100 µM | GI50 [31]: > 100 µM | TGI [31]: > 100 µM | GI50 [32]: > 100 µM | TGI [32]: > 100 µM | GI50 [33]: > 100 µM | TGI [33]: > 100 µM | GI50 [34]: > 81.7 µM | TGI [34]: > 100 µM | GI50 [35]: > 100 µM | TGI [35]: > 100 µM | GI50 [36]: > 100 µM | TGI [36]: > 100 µM | GI50 [37]: > 100 µM | TGI [37]: > 100 µM | GI50 [38]: > 100 µM | TGI [38]: > 100 µM | GI50 [39]: > 100 µM | TGI [39]: > 100 µM | GI50 [40]: > 100 µM | TGI [40]: > 100 µM | GI50 [41]: > 100 µM | TGI [41]: > 100 µM | GI50 [42]: > 100 µM | TGI [42]: > 100 µM | GI50 [43]: > 100 µM | TGI [43]: > 100 µM | GI50 [44]: > 100 µM | TGI [44]: > 100 µM | GI50 [45]: > 100 µM | TGI [45]: > 100 µM | GI50 [46]: > 100 µM | TGI [46]: > 100 µM | GI50 [47]: > 100 µM | TGI [47]: > 100 µM | GI50 [48]: > 100 µM | TGI [48]: > 100 µM | GI50 [49]: > 100 µM | TGI [49]: > 100 µM | GI50 [50]: > 100 µM | TGI [50]: > 100 µM | GI50 [51]: > 100 µM | TGI [51]: > 100 µM | GI50 [52]: > 100 µM | TGI [52]: > 100 µM | GI50 [53]: > 100 µM | TGI [53]: > 100 µM | GI50 [54]: > 100 µM | TGI [54]: > 100 µM | GI50 [55]: > 100 µM | TGI [55]: > 100 µM | GI50 [56]: > 100 µM | TGI [56]: > 100 µM | GI50 [57]: > 100 µM | TGI [57]: > 100 µM | GI50 [58]: > 100 µM | TGI [58]: > 100 µM
